Experimental data from ChEMBL document CHEMBL3286142, “Synthesis and antihyperglycemic evaluation of new 2-hydrazolyl-4-thiazolidinone-5-carboxylic acids having pyrazolyl pharmacophores” (2014).

System: Rattus norvegicus
Assay: Antihyperglycemic activity in sucrose loaded albino Sprague-Dawley rat model assessed as improvement of glucose tolerance by measuring reduction in glucose AUC at 100 mg/kg, po administered 30 mins prior to sucrose load measured for 2 hrs by oral sucrose tolerance test
Format: functional
Design: scale not given: the % may be the effect or the level left

Row | SMILES | Activity [%]
1 | Cc1ccc(-c2nn(-c3ccccc3)cc2/C=N\N=C2\NC(=O)C(CC(=O)O)S2)cc1 (configuration not stated) | 6.09
2 | COc1ccc(-c2nn(-c3ccccc3)cc2/C=N\N=C2\NC(=O)C(CC(=O)O)S2)cc1 (configuration not stated) | 6.97
3 | O=C(O)CC1S/C(=N\N=C/c2cn(-c3ccccc3)nc2-c2ccc(F)cc2)NC1=O (configuration not stated) | 7.64
4 | O=C(O)CC1S/C(=N\N=C/c2cn(-c3ccccc3)nc2-c2ccc(Br)cc2)NC1=O (configuration not stated) | 5.69
5 | O=C(O)CC1S/C(=N\N=C/c2cn(-c3ccccc3)nc2-c2ccc([N+](=O)[O-])cc2)NC1=O (configuration not stated) | 7.57
6 | O=C(O)CC1S/C(=N\N=C/c2cn(-c3ccccc3)nc2-c2ccc(O)cc2)NC1=O (configuration not stated) | 7.97
7 | CN(C)C(=N)NC(=N)N [METFORMIN] | 14.1
